In patent US4056626A, “Pharmaceutical composition containing benzofuran derivative” (Kakenyaku Kako Co., Ltd., priority 1971, dated 1977):
Values joined by “and” are separate entries in the source; they are usually repeats but may differ in a detail not shown here. Equal values may be shown once. Read-outs that look alike come from different tables or passages of the source.

How the values were obtained:
[1] = test system: isoproterenol antagonism concerning myocardial contractile force, heart rate and diastolic blood pressure; assay: isoproterenol antagonism in anesthetized dogs; assay type: in vivo; conditions: for ED50: Canis lupus familiaris, iv; for Inhibition of decrease in diastolic blood pressure, relative activity / Inhibition of increase in heart rate, relative activity / Inhibition of increase in myocardial contractile force, relative activity: activity of Propranolol is 1
Protocol: Male and female dogs weighing 9 kg. to 20 kg. were employed. The dogs were anesthetized with barbital sodium (30 mg./kg.) given intraperitoneally. The compounds to be tested and isoproterenol were administered in femoral vein through a canula.
The maximum increase was adopted as the increase in myocardial contractile force. The increase after 1 minute from the administration of isoproterenol was adopted as the increase in heart rate. The maximum decrease was adopted as the decrease in diastolic blood pressure. Then, the compounds to be tested were administered in a dose of 0.01 to 100 μg./kg. After an interval of 2 minutes, isoproterenol was again administered in a dose of 0.3 μg./kg. After the second administration of isoproterenol, the maximum increase in myocardial contractile force, the increase after 1 minute from the administration of isoproterenol in heart rate and the maximum decrease in diastolic blood pressure were again determined.

[2] = test system: isoproterenol antagonism concerning myocardial contractile force and heart rate in isolated guinea-pig atria; assay: isoproterenol antagonism in isolated guinea-pig atria; conditions: for Inhibition of increase in heart rate ED 50 / Inhibition of increase in myocardial contractile force ED 50: 37° C., isoproterenol 1 × 10^-8 g./ml., 50% inhibition; for Inhibition of increase in heart rate, relative activity / Inhibition of increase in myocardial contractile force, relative activity: activity of Propranolol is 1
Protocol: Isolated guinea-pig atrium was mounted in a chamber containing Ringer-Lockesolution (37° C.), through which a mixed gas of 95% O2 and 5% CO2 was continuously bubbled. Isoproterenol was added to the solution at a concentration of 1 × 10^-^8 g./ml.

[3] = in vivo; conditions: mouse, iv
[4] = test system: tachycardia in hyperthyroidism; assay: clinical study: tachycardia in hyperthyroidism, single administration; assay type: in vivo, patients; conditions: Mercazol reference, oral 30 mg./day, 14 days
Protocol: A. A therapeutic effect of the present pharmaceutical composition to tachycardia in hyperthyroidism in case of its signle administration was investigated.
To 12 patients of hyperthyroidism shown in Table VI was orally administered the active ingredient, 2-acetyl-7-(2-hydroxy-3-isopropylaminopropoxy)benzofuran hydrochloride, contained in the capsules obtained in Example 47 in a dose of 30 mg./day (3 times per day) for 14 days. The treatment evaluation was determined according to the following standard:
For reference, a therapeutic effect of an antihyperthyroidism medicament to tachycardia in hyperthyroidism in case of its single administration was investigated.
To 12 patients of hyperthyroidism shown in Table VII was orally administered Mercazol which has been widely employed as an antihyperthyroidism medicament in a dose of 30 mg./day for 14 days.

[5] = anesthetized dogs, femoral vein, isoproterenol 0.3 μg./kg., 50% inhibition, read-out: Inhibition of decrease in diastolic blood pressure ED50
[6] = anesthetized dogs, femoral vein, isoproterenol 0.3 μg./kg., 50% inhibition, read-out: Inhibition of increase in heart rate ED50
[7] = anesthetized dogs, femoral vein, isoproterenol 0.3 μg./kg., 50% inhibition, read-out: Inhibition of increase in myocardial contractile force ED50

Structure (SMILES) | ED50 [1, 5] [µg/kg] | ED50 [1, 6] [µg/kg] | ED50 [1, 7] [µg/kg] | Inhibition of decrease in diastolic blood pressure, relative activity ([1]; anesthetized dogs) | Inhibition of increase in heart rate, relative activity ([1]; anesthetized dogs) | Inhibition of increase in myocardial contractile force, relative activity ([1]; anesthetized dogs) | Inhibition of increase in heart rate ED 50 [2] [µg/mL] | Inhibition of increase in myocardial contractile force ED 50 [2] [µg/mL] | Inhibition of increase in heart rate, relative activity [2] | Inhibition of increase in myocardial contractile force, relative activity [2] | LD50 at 24 h [3] [µg/kg] | Pulse rate after treatment, average ([4]; 12 patients, average before treatment 111.3, standard deviation 8.6, in beats/min (unit assumed)) | Pulse rate difference, average ([4]; 12 patients, standard deviation printed 0.6) [beats/min] | Pulse rate difference ([4]; before minus after, per patient, in beats/min (unit assumed)) | Pulse rate after treatment ([4]; per patient, in beats/min (unit assumed)) | ED50 ([1]; read-out: Inhibition of decrease in diastolic blood pressure ED50) [µg/kg] | ED50 ([1]; read-out: Inhibition of increase in heart rate ED50) [µg/kg] | ED50 ([1]; read-out: Inhibition of increase in myocardial contractile force ED50) [µg/kg]
CC(=NC(C)C)c1cc2cccc(OCC(O)CNC(C)C)c2o1 (stereo not shown) [Compound No. 1, 2-(1-isopropyliminoethyl)-7-(2-hydroxy-3-isopropylaminopropoxy)benzofuran] | 0.3 | 0.42 | 0.6 | 3.1 | 25.0 | 15.9 | 0.014 | 0.0017 | 7.1 | 5.9 | 65000 to 70000 | – | – | – | – | – | – | –
CC(=O)c1cc2c(OCC(O)CNC(C)(C)C)cccc2o1 (stereo not shown) [Compound No. 2, 2-acetyl-4-(2-hydroxy-3-tert.-butylaminopropoxy)benzofuran] | 0.92 | 35.2 | 8.62 | 1.0 | 0.3 | 1.1 | 0.045 | 0.017 | 2.2 | 0.6 | 35000 to 40000 | – | – | – | – | – | – | –
CC(=O)c1cc2cccc(OCC(O)CNC(C)C)c2o1 (stereo not shown) [Compound No. 3, 2-acetyl-7-(2-hydroxy-3-isopropylaminopropoxy)benzofuran] | 0.18 | 0.52 | 3.4 | 5.3 | 21.0 | 2.8 | 0.04 | 0.005 | 2.5 | 2.0 | 100000 to 105000 | – | – | – | – | – | – | –
CC(=O)c1cc2cccc(OCC(O)CNC(C)(C)C)c2o1 (stereo not shown) [Compound No. 4, 2-acetyl-7-(2-hydroxy-3-tert.-butylaminopropoxy)benzofuran] | 0.72 | 3.5 | 6.33 | 1.3 | 3.0 | 1.5 | 0.033 | 0.004 | 3.0 | 2.5 | 45000 to 55000 | – | – | – | – | – | – | –
CC(=NC(C)C)c1cc2c(OCC(O)CNC(C)C)cccc2o1 (stereo not shown) [Compound No. 6, 2-(1-isopropyliminoethyl)-4-(2-hydroxy-3-isopropylaminopropoxy)benzofuran] | – | 0.21 | 5.93 | 30.2 | 50.0 | 1.6 | 0.014 | 0.008 | 7.0 | 1.3 | 45000 to 50000 | – | – | – | – | – | – | –
CCC(C)NCC(O)COc1cccc2cc(C(C)=O)oc12 (stereo not shown) [Compound No. 7, 2-acetyl-7-(2-hydroxy-3-sec.-butylaminopropoxy)benzofuran] | 2.35 | 7.07 | 5.59 | 0.4 | 1.5 | 1.7 | 0.067 | 0.0048 | 1.5 | 2.0 | 75000 to 80000 | – | – | – | – | – | – | –
CCc1cc2c(C(C)=O)ccc(OCC(O)CNC(C)C)c2o1 (stereo not shown) [Compound No. 8, 2-ethyl-4-acetyl-7-(2-hydroxy-3-isopropylaminopropoxy)benzofuran] | 1.9 | 0.3 | 6.4 | 0.5 | 35.0 | 1.5 | 0.053 | 0.0091 | 1.9 | 1.1 | 120000 to 125000 | – | – | – | – | – | – | –
CCC(C)N=C(C)c1cc2cccc(OCC(O)CNC(C)CC)c2o1 (stereo not shown) [Compound No. 9, 2-(1-sec.-butyliminoethyl)-7-(2-hydroxy-3-sec.-butylaminopropoxy)benzofuran] | 0.16 | 0.53 | 0.73 | 6.0 | 20.0 | 13.1 | 0.06 | 0.004 | 1.6 | 2.5 | 75000 to 80000 | – | – | – | – | – | – | –
CCC(C)N=C(C)c1cc2c(OCC(O)CNC(C)CC)cccc2o1 (stereo not shown) [Compound No. 10, 2-(1-sec.-butyliminoethyl)-4-(2-hydroxy-3-sec.-butylaminopropoxy)benzofuran] | – | 0.21 | 3.95 | 23.5 | 50.0 | 2.4 | 0.04 | 0.0059 | 2.5 | 1.7 | 60000 to 65000 | – | – | – | – | – | – | –
Cn1cc[nH]c1=S [Mercazol, reference compound] | – | – | – | – | – | – | – | – | – | – | – | 100.2 | 12 | 20 and 22 and 10 and 14 and 12 and 4 and 0 | 90 and 110 and 100 and 108 and 116 | – | – | –
CC(C)NCC(O)COc1cccc2ccccc12 (stereo not shown) [Propranolol, reference compound] | – | – | – | – | – | – | – | – | – | – | – | – | – | – | – | 0.94 | 10.6 | 9.5
CCOC(=O)c1cc2cccc(OCC(O)CNC(C)C)c2o1 (stereo not shown) [compound 5, 2-carbethoxy-7-(2-hydroxy-3-isopropylaminopropoxy)benzofuran] | 1.57 | 0.21 | 9.5 | 0.6 | 50.0 | 1.0 | 0.029 | 0.0055 | 3.5 | 1.8 | 50000 to 55000 | – | – | – | – | – | – | –
